Holding throughout (assay): relative viability (nuclei count vs DMSO), 5 days (fraction); higher = more cells survive
Compound in the test “XMD8-85 + Lapatinib”: CN1CCN(CC1)C2=CC(=C(C=C2)NC3=NC=C4C(=N3)N(C5=CC=CC=C5C(=O)N4C)C)OC [XMD8-85] + CS(=O)(=O)CCNCc1ccc(-c2ccc3ncnc(Nc4ccc(OCc5cccc(F)c5)c(Cl)c4)c3c2)o1 [Lapatinib] (partner 2 µM)
In outline:
(§1)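 Five library-drug doses in √10 steps were combined with a fixed anchor-drug dose, or a single drug was given alone, by pin tool to lung cancer cell lines in 1536-well plates the day after seeding. Nuclei were stained and counted after 5 days. Relative viability is the nuclei count in treated wells over that in vehicle wells, taken as the median of duplicate plates.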

Compound in the test “XMD8-85 + Dasatinib”: CN1CCN(CC1)C2=CC(=C(C=C2)NC3=NC=C4C(=N3)N(C5=CC=CC=C5C(=O)N4C)C)OC [XMD8-85] + Cc1nc(Nc2ncc(C(=O)Nc3c(C)cccc3Cl)s2)cc(N2CCN(CCO)CC2)n1 [Dasatinib] (partner 0.075 µM)
In outline:
as §1

Compound in the test “4EGI-1 + Crizotinib”: O=C(O)C(Cc1ccccc1[N+](=O)[O-])=NNc1nc(-c2ccc(Cl)c(Cl)c2)cs1 (mixture of isomers) [4EGI-1] + C[C@@H](Oc1cc(-c2cnn(C3CCNCC3)c2)cnc1N)c1c(Cl)ccc(F)c1Cl [Crizotinib] (partner 1 µM)
In outline: as §1

Compound in the test “4EGI-1 + Olaparib”: O=C(O)C(Cc1ccccc1[N+](=O)[O-])=NNc1nc(-c2ccc(Cl)c(Cl)c2)cs1 (mixture of isomers) [4EGI-1] + O=C(c1cc(Cc2n[nH]c(=O)c3ccccc23)ccc1F)N1CCN(C(=O)C2CC2)CC1 [Olaparib] (partner 8 µM)
In outline:
as §1

Regarding NCI-H838, the relative viability with XMD8-85 + Lapatinib (first compound 0.08 µM) came out at 0.942; with XMD8-85 + Lapatinib (first compound 0.253 µM) it was 1.05; with XMD8-85 + Lapatinib (first compound 0.8 µM), 1.09; with XMD8-85 + Lapatinib (first compound 2.53 µM) it was 0.967; in the test with XMD8-85 + Lapatinib (first compound 8 µM), 0.45; with XMD8-85 + Dasatinib (first compound 0.08 µM) it was 0.397. Besides, the relative viability with XMD8-85 + Dasatinib (first compound 0.253 µM) worked out at 0.277; with XMD8-85 + Dasatinib (first compound 0.8 µM), 0.281; with XMD8-85 + Dasatinib (first compound 2.53 µM) it was 0.28; with XMD8-85 + Dasatinib (first compound 8 µM), 0.191; with 4EGI-1 + Crizotinib (first compound 0.5 µM), 0.843; with 4EGI-1 + Crizotinib (first compound 5 µM), 0.905. Besides, the relative viability in the test with 4EGI-1 + Crizotinib (first compound 15.81 µM) worked out at 0.706; in the test with 4EGI-1 + Crizotinib (first compound 50 µM), 0.378; in the test with 4EGI-1 + Olaparib (first compound 0.5 µM), 0.752; with 4EGI-1 + Olaparib (first compound 1.581 µM), 0.752; with 4EGI-1 + Olaparib (first compound 5 µM) it was 0.677; with 4EGI-1 + Olaparib (first compound 15.81 µM), 0.372. In addition, the relative viability with 4EGI-1 + Olaparib (first compound 50 µM) worked out at 0.161.

Take COR-L 105: the relative viability is 0.366 in the test with XMD8-85 + Lapatinib (first compound 0.08 µM); 0.341 with XMD8-85 + Lapatinib (first compound 0.253 µM); 0.407 with XMD8-85 + Lapatinib (first compound 0.8 µM); 0.342 with XMD8-85 + Lapatinib (first compound 2.53 µM); 0.348 with XMD8-85 + Lapatinib (first compound 8 µM); 0.336 with XMD8-85 + Dasatinib (first compound 0.08 µM). The relative viability in the test with XMD8-85 + Dasatinib (first compound 0.253 µM) was 0.364; in the test with XMD8-85 + Dasatinib (first compound 0.8 µM) it was 0.292; with XMD8-85 + Dasatinib (first compound 2.53 µM) it was 0.268; with XMD8-85 + Dasatinib (first compound 8 µM), 0.171; with 4EGI-1 + Crizotinib (first compound 0.5 µM), 0.722; in the test with 4EGI-1 + Crizotinib (first compound 1.581 µM), 0.626. Moreover, the relative viability is 0.789 with 4EGI-1 + Crizotinib (first compound 5 µM); 0.887 with 4EGI-1 + Crizotinib (first compound 15.81 µM); 0.784 in the test with 4EGI-1 + Crizotinib (first compound 50 µM); 0.64 with 4EGI-1 + Olaparib (first compound 0.5 µM); 0.635 with 4EGI-1 + Olaparib (first compound 1.581 µM); 0.644 with 4EGI-1 + Olaparib (first compound 5 µM). Moreover, the relative viability with 4EGI-1 + Olaparib (first compound 15.81 µM) came out at 0.559; with 4EGI-1 + Olaparib (first compound 50 µM) it was 0.537.

On to HCC-366, for which the relative viability in the test with XMD8-85 + Lapatinib (first compound 0.08 µM) was determined as 0.94; with XMD8-85 + Lapatinib (first compound 0.253 µM), 1.12; with XMD8-85 + Lapatinib (first compound 0.8 µM), 1.09; in the test with XMD8-85 + Lapatinib (first compound 2.53 µM), 0.994; in the test with XMD8-85 + Lapatinib (first compound 8 µM), 1.06; in the test with XMD8-85 + Dasatinib (first compound 0.08 µM), 0.552. Further, the relative viability was 0.828 with XMD8-85 + Dasatinib (first compound 0.253 µM); 0.642 with XMD8-85 + Dasatinib (first compound 0.8 µM); 0.74 in the test with XMD8-85 + Dasatinib (first compound 2.53 µM); 0.601 in the test with XMD8-85 + Dasatinib (first compound 8 µM); 0.641 with 4EGI-1 + Crizotinib (first compound 0.5 µM); 0.277 with 4EGI-1 + Crizotinib (first compound 1.581 µM). Moreover, the relative viability is 0.605 in the test with 4EGI-1 + Crizotinib (first compound 5 µM); 0.506 with 4EGI-1 + Crizotinib (first compound 15.81 µM); 0.529 with 4EGI-1 + Crizotinib (first compound 50 µM); 0.342 with 4EGI-1 + Olaparib (first compound 0.5 µM); 0.203 with 4EGI-1 + Olaparib (first compound 1.581 µM); 0.395 with 4EGI-1 + Olaparib (first compound 5 µM). The relative viability came out at 0.257 with 4EGI-1 + Olaparib (first compound 15.81 µM) and 0.0601 with 4EGI-1 + Olaparib (first compound 50 µM).

Turning to NCI-H650, the relative viability with XMD8-85 + Lapatinib (first compound 0.08 µM) is 0.867; in the test with XMD8-85 + Lapatinib (first compound 0.253 µM) it was 0.858; with XMD8-85 + Lapatinib (first compound 0.8 µM), 1.04; with XMD8-85 + Lapatinib (first compound 2.53 µM) it was 0.876; in the test with XMD8-85 + Dasatinib (first compound 0.08 µM) it was 0.446; in the test with XMD8-85 + Dasatinib (first compound 0.253 µM) it was 0.51. The relative viability with XMD8-85 + Dasatinib (first compound 0.8 µM) turned out to be 0.437; in the test with XMD8-85 + Dasatinib (first compound 2.53 µM), 0.418; in the test with XMD8-85 + Dasatinib (first compound 8 µM), 0.304; with 4EGI-1 + Crizotinib (first compound 0.5 µM), 0.847; in the test with 4EGI-1 + Crizotinib (first compound 5 µM), 0.811; in the test with 4EGI-1 + Crizotinib (first compound 15.81 µM), 0.596. Besides, the relative viability with 4EGI-1 + Crizotinib (first compound 50 µM) came to 0.59; with 4EGI-1 + Olaparib (first compound 0.5 µM), 0.439; with 4EGI-1 + Olaparib (first compound 5 µM), 0.414; in the test with 4EGI-1 + Olaparib (first compound 15.81 µM), 0.404; with 4EGI-1 + Olaparib (first compound 50 µM), 0.288.

Turning to NCI-H1299, the relative viability is 1 with XMD8-85 + Lapatinib (first compound 0.08 µM); 0.985 in the test with XMD8-85 + Lapatinib (first compound 0.253 µM); 0.977 in the test with XMD8-85 + Lapatinib (first compound 0.8 µM); 0.974 in the test with XMD8-85 + Lapatinib (first compound 2.53 µM); 0.67 with XMD8-85 + Lapatinib (first compound 8 µM); 0.98 in the test with 4EGI-1 + Crizotinib (first compound 0.5 µM). In addition, the relative viability in the test with 4EGI-1 + Crizotinib (first compound 1.581 µM) came out at 1; with 4EGI-1 + Crizotinib (first compound 5 µM), 0.914; in the test with 4EGI-1 + Crizotinib (first compound 15.81 µM), 0.973; with 4EGI-1 + Crizotinib (first compound 50 µM), 0.386; with 4EGI-1 + Olaparib (first compound 0.5 µM), 1.01; with 4EGI-1 + Olaparib (first compound 1.581 µM), 0.95. The values for the relative viability with 4EGI-1 + Olaparib (first compound 5 µM), in the test with 4EGI-1 + Olaparib (first compound 15.81 µM) and with 4EGI-1 + Olaparib (first compound 50 µM) were 0.942, 0.863 and 0.317, respectively.

In the case of LCLC-97TM1, the relative viability stood at 0.703 with XMD8-85 + Lapatinib (first compound 0.08 µM); 0.931 with XMD8-85 + Lapatinib (first compound 0.253 µM); 0.859 with XMD8-85 + Lapatinib (first compound 0.8 µM); 1.02 with XMD8-85 + Lapatinib (first compound 2.53 µM); 1.15 in the test with XMD8-85 + Lapatinib (first compound 8 µM); 0.813 in the test with XMD8-85 + Dasatinib (first compound 0.253 µM). Moreover, the relative viability came to 0.856 with XMD8-85 + Dasatinib (first compound 0.8 µM); 1.01 with XMD8-85 + Dasatinib (first compound 2.53 µM); 0.87 with XMD8-85 + Dasatinib (first compound 8 µM); 0.445 with 4EGI-1 + Crizotinib (first compound 0.5 µM); 0.397 with 4EGI-1 + Crizotinib (first compound 5 µM); 0.302 in the test with 4EGI-1 + Crizotinib (first compound 15.81 µM). The relative viability is 0.172 with 4EGI-1 + Crizotinib (first compound 50 µM); 0.355 in the test with 4EGI-1 + Olaparib (first compound 0.5 µM); 0.278 with 4EGI-1 + Olaparib (first compound 5 µM); 0.328 with 4EGI-1 + Olaparib (first compound 15.81 µM); 0.0574 with 4EGI-1 + Olaparib (first compound 50 µM).

For NCI-H1666, the relative viability with XMD8-85 + Lapatinib (first compound 0.08 µM) came to 0.58; with XMD8-85 + Lapatinib (first compound 0.253 µM) it was 0.709; with XMD8-85 + Lapatinib (first compound 0.8 µM), 0.92; with XMD8-85 + Lapatinib (first compound 2.53 µM), 0.816; with XMD8-85 + Lapatinib (first compound 8 µM), 0.499; with XMD8-85 + Dasatinib (first compound 0.08 µM) it was 0.822. The relative viability came to 0.827 with XMD8-85 + Dasatinib (first compound 0.253 µM); 0.808 with XMD8-85 + Dasatinib (first compound 0.8 µM); 0.773 in the test with XMD8-85 + Dasatinib (first compound 2.53 µM); 0.701 with XMD8-85 + Dasatinib (first compound 8 µM); 1.12 in the test with 4EGI-1 + Crizotinib (first compound 0.5 µM); 1.03 with 4EGI-1 + Crizotinib (first compound 1.581 µM). For the same cell line, the relative viability in the test with 4EGI-1 + Crizotinib (first compound 5 µM) is 1.19; with 4EGI-1 + Crizotinib (first compound 15.81 µM), 0.632; with 4EGI-1 + Crizotinib (first compound 50 µM), 0.253; in the test with 4EGI-1 + Olaparib (first compound 0.5 µM), 0.74; with 4EGI-1 + Olaparib (first compound 1.581 µM) it was 0.727; with 4EGI-1 + Olaparib (first compound 5 µM), 0.778. The results for the relative viability with 4EGI-1 + Olaparib (first compound 15.81 µM) and with 4EGI-1 + Olaparib (first compound 50 µM) were 0.622 and 0.488, respectively.

In the case of NCI-H1993, the relative viability with XMD8-85 + Lapatinib (first compound 0.08 µM) worked out at 0.662; in the test with XMD8-85 + Lapatinib (first compound 0.253 µM), 0.755; with XMD8-85 + Lapatinib (first compound 0.8 µM) it was 0.93; with XMD8-85 + Lapatinib (first compound 2.53 µM), 0.819; with XMD8-85 + Lapatinib (first compound 8 µM) it was 0.774; with XMD8-85 + Dasatinib (first compound 0.08 µM), 0.522. The relative viability stood at 0.518 with XMD8-85 + Dasatinib (first compound 0.253 µM); 0.648 with XMD8-85 + Dasatinib (first compound 0.8 µM); 0.744 with XMD8-85 + Dasatinib (first compound 2.53 µM); 0.744 with XMD8-85 + Dasatinib (first compound 8 µM); 0.943 in the test with 4EGI-1 + Crizotinib (first compound 0.5 µM); 0.776 with 4EGI-1 + Crizotinib (first compound 1.581 µM). Moreover, the relative viability with 4EGI-1 + Crizotinib (first compound 5 µM) was determined as 0.92; with 4EGI-1 + Crizotinib (first compound 15.81 µM), 0.629; with 4EGI-1 + Crizotinib (first compound 50 µM) it was 0.688; with 4EGI-1 + Olaparib (first compound 0.5 µM), 1.11; with 4EGI-1 + Olaparib (first compound 1.581 µM), 0.965; with 4EGI-1 + Olaparib (first compound 5 µM), 1.21. Besides, the relative viability in the test with 4EGI-1 + Olaparib (first compound 15.81 µM) came out at 0.967; with 4EGI-1 + Olaparib (first compound 50 µM), 0.522.

(Values after the supplement of paper PMC10307832.)
